The values below come from US9309247B2, “2-substituted imidazo[4,5-D]phenanthroline derivatives and their use in the treatment of cancer” (Aptose Biosciences Inc., priority 2013, dated 2016).

In assay [1] the test system is human renal cancer cells CAKI-1. Description: XTT cell proliferation assay, CAKI-1. In kind it is cell-based. The settings on record: 5 days incubation, read-out: Antiproliferative activity, Kidney CAKI-1. On the procedure:
(§1) Exemplary compounds 1-8 were tested for anti-cancer activity in vitro using human renal cancer cells (ACHN and CAK-1), human pancreatic cells (BXPC3 and SU-86-86), human prostate cancer cell (DU14), human colon carcinoma cells (HT-29 and KM-12), leukemia cells (HL60), brain cancer/tumour cells (SK-A-AS, U87-MG), and human non-small cell lung cancer cells (H460). Compounds 1-8 are the specific embodiments of Formula (I) and Formula (IV) as described above in this application.
(§2) The cells were maintained as a monolayer in a growth medium; McCoy's 5A modified medium (Sigma, St. Louis, Mo.), supplemented with 2 mM L-glutamine (Gibco, Grand Island, N.Y.), 10% fetal bovine serum (FBS) (Multicell, WISENT Inc. St-Bruno, QC), antibiotic-antimycotic (Multicell), at 37° C. in a 5% CO2-humidified incubator. Cells were transferred onto 150 mm tissue culture plates and grown until sub-confluency (70-80%) prior to their use. The in vitro antiproliferative activity of compounds was evaluated by incubating the cells with varying concentrations of exemplary compounds as shown in Table 1 for 5 days. The efficacy of these compounds in this cell proliferation assay was measured based in the ability of live cells to reduce the tetrazolium salt XTT to orange colored compounds of formazan (XTT cell proliferation kit IT, Roche Applied Science, Montreal, QC).
In general terms: Formazan colour is commonly taken as a measure of viable cells.

For assay [2], the system named is human pancreatic cells SU-86-86. Description: XTT cell proliferation assay, SU-86-86. In kind it is cell-based. The following applies: 5 days incubation, read-out: Antiproliferative activity, Pancreas SU-86-86. On the procedure:
as §1, §2

Another assay concerns leukemia cells HL60. Description: XTT cell proliferation assay, HL60. In kind it is cell-based, human. The settings on record: 5 days incubation, read-out: Antiproliferative activity, Leuk. HL60. The protocol: as §1, §2
For assay [3], the system named is brain cancer/tumour cells U87-MG. As to the kind of experiment: XTT cell proliferation assay, U87-MG. In kind it is cell-based, human. The settings on record: 5 days incubation, read-out: Antiproliferative activity, Brain U87-MG. On the procedure:
as §1, §2

In another assay the test system is P388D1 (mouse, lymphoma). Description: Cell growth inhibition assay, P388D1. The settings on record: five days of incubation, XTT; read-out: IC50 P388D1 (ms). In kind it is cell-based. The protocol: In this study, compounds 1-8 were screened in vitro against a panel of four mouse lymphoma cell lines and two human lymphoma cell line for cell growth inhibition activity. Following treatment, half maximal inhibitory concentrations (IC50) were determined with the objective of selecting the most efficacious compounds for evaluation of in vitro absorption, distribution, metabolism, and excretion (ADME) screening.
Similarly, human Burkitt's lymphoma Ramos cells (ATCC CRL-1596) were grown in suspension in Roswell Park Memorial Institute (RPMI) 1640 medium supplemented with 10% fetal bovine serum (FBS), 10 mM HEPES KOH pH 7.4, and 2 mM sodium pyruvate. Mouse P388D1 (ATCC CCL-46) and WR19L (ATCC TIB-52) cells were grown in suspension in Dulbecco's Modified Eagle Medium (DMEM) with 10% fetal bovine serum (FBS), 10 mM HEPES, and 2 mM sodium pyruvate. Mouse WEHI231 (ATCC CRL-1702) and EL4 (ATCC TIB-39) cells were grown in suspension in DMEM with 10% fetal bovine serum (FBS), 10 mM HEPES KOH pH 7.4, 2 mM sodium pyruvate, and 0.05 mM β-mercaptoethanol. All cells were maintained at 37° C. in an atmosphere of 5% CO2 in air. Logarithmically growing cells were routinely sub-cultured twice weekly. Briefly, cells were collected by centrifugation, resuspended in pre-warmed media, and diluted 1:10 into a 75 cm^2 flask.
Cells were subcultured and 4×10^3 cells (in 50 μL) were transferred to each well in a Falcon 96-well tissue culture plate. Exemplary compounds were dissolved in pure dimethyl sulphoxide (DMSO) at a concentration of 10 mM. From this 10 mM stock solution, 12 successive serial dilutions were made in DMSO (2.5 fold dilutions), ranging from 0.52 μM to 10 mM. Using these stock dilutions, 5 μL of each were added to 500 μL of media, and 50 μL of this was added to the cells. The final concentrations being tested ranged from 0.0026 μM to 50 μM. Each concentration was tested in triplicate, and DMSO and untreated cells were also included as controls. After five days of incubation with the compounds, cell viability was determined using the XTT cell proliferation kit (Roche, Cat. No. 11 465 015 001). Following the XTT protocol, 4.5-24 hours after addition of the reagent, the plates were read in a μQuant 96-well plate spectrophotometer (Biotek Instruments Inc.) and the results analyzed to determine the IC50.

In assay [4] the test system is human colon adenocarcinoma cells HT-29. As to the kind of experiment: Colon carcinoma (HT-29) xenograft model. In kind it is in vivo, CD-1 female nude mice. The settings on record: 50 mg/kg/d, five days on, 2 day break, 5 weeks, vs vehicle-treated control, FIG. 1. The protocol: The ability of compound 1 to inhibit colon tumour growth in vivo was tested as follows. CD-1 female nude mice (7 mice per treatment group, 6-7 weeks) were injected […] with human colon adenocarcinoma cells HT-29 cells (3×10^6 cells in 0.1 ml PBS). Treatment of the mice with vehicle or 50 mg/kg/d of […] was initiated 5 days post-inoculation (size of tumours=20-40 mm^3) for 7-day cycles of five days followed by a 2 day break for 5 weeks. The size of the tumours was measured over the course of the experiment using calipers, and the weight of the tumours was measured after the animals were sacrificed.

Consider `FC1(F)Oc2ccc(-c3nc4c5cccnc5c5ncccc5c4[nH]3)cc2O1` [Compound 1], for which the IC50 came out at 156 nM in assay [1]; 180 nM in assay [2]; 30 nM in the assay with leukemia cells HL60; 190 nM in assay [3]; 370 nM in the assay on P388D1 (mouse, lymphoma). In assay [4], the “inhibition of tumour growth, as measured by tumour size” value was “able to inhibit tumour growth”.
